According to a melting point compilation (Tetko et al.; mined from patent text by program, amines drawn as free bases though some values may be those of a salt):

| SMILES | melting point |
| --- | --- |
| COc1ccc(-c2ncn(-c3cc(OC)c(OC)c(OC)c3)c2-c2cc(OC)c(OC)c(OC)c2)cc1OC | 160 to 161 °C |
| CC1CCc2c(Cl)ccc3c(=O)c(C(=O)O)cn1c23 (stereo not drawn) | 290 to 291 °C |
| O=Cc1ccc(Sc2nc3ncccc3[nH]2)o1 | 188 °C |
| COc1cc2c(cc1OC)C(=CO)C(=O)N2 | 216 to 217 °C |
| O=c1n(Cc2ccccc2)nc2n1C=Cc1ccccc1C2 | 133 to 134 °C |
| CC1(C)C=C(c2ccc(C(=O)N3Cc4cccn4Cc4ccccc43)cc2)CC(C)(C)C1 | 142 to 143 °C |
| CCOC(=O)[C@@H](CNC(=O)c1ccccc1)[C@H](C)O | 72 to 73 °C |
| Cc1ccc2c(c1)C(c1cn(C)c(=O)[nH]c1=S)c1nc(C)oc1C=C2 (stereo not drawn) | 238 to 240 °C |
| CCCc1nn(-c2ccc(C(F)(F)F)cn2)cc1CCCOc1ccc(CCC(=O)O)cc1 | 118 to 119 °C |
| CCCCCCCCc1c(C)nc2cc(C)nn2c1N | 169 °C |
| CCCCCC(CC(=O)Nc1cc(C(=O)NC(=O)C(C)(C)C)ccc1C(C)(C)C)c1ccc(OC)cc1OC (stereo not drawn) | 170 to 172 °C |
| OC1Cc2cc(I)ccc2Sc2ccccc21 (stereo not drawn) | 131 to 133 °C |
| NC[C@H](O)c1ccc2nnnn2c1 | 153 to 154 °C |
| Nc1ccncc1Nc1ccc2[nH]ccc2c1 | 83 to 90 °C |
| CCOC(=O)C1=CC2(CCC1S(=O)(=O)Nc1ccc(F)cc1Cl)CCC1(COCOO1)CO2 (stereo not drawn) | 156 to 157 °C |
| O=C1C2CCCC(C(=O)N2Cc2ccccc2)N1Cc1ccccc1 | 201 to 202 °C |
| O=C1Nc2ccc(Cl)cc2C1(O)Cc1ccccc1 (stereo not drawn) | 204 to 205 °C |
| COc1ccc2c(c1Cl)Sc1ccccc1N2C(C)=O | 136 °C |
| C#Cc1cn(C2CC(O)C(CO)O2)c(=O)n(C(=O)c2ccccc2)c1=O (stereo not drawn) | 156 to 157 °C |
| CCCCC1Oc2cc(C(=O)OC)ccc2NC1=O (stereo not drawn) | 139 to 140 °C |
| BrCc1ccc2ccccc2n1 | 33 to 37 °C |
| CCOC(=O)CCc1cn(-c2ccc([N+](=O)[O-])cn2)nc1C(C)C | 90 to 91 °C |
| CNC(=O)NS(=O)(=O)c1cc2c(cc1OC)OCC(NC(=O)c1cc(F)ccc1OC)C2 (stereo not drawn) | 260 °C |
| CCN(Cc1ccccc1OCc1ccccc1)c1ccc(C(=O)O)cc1 | 165 °C |
| CCCCCCCCCCCCCCCCCCNC(=O)NCCCCCCCCN | 120 to 145 °C |
| N#Cc1cccc(C(=O)Nc2cccc(-n3nc(C(F)(F)F)cc3C(F)(F)F)c2)c1 | 160 to 161 °C |

| SMILES | melting point |
| --- | --- |
| CCOC(=O)CCCC(=O)c1ccc(-c2ccc(C)cc2)s1 | 120 to 121 °C |
| CCCCCCCCSc1ccc(C=Cc2ccc([N+](=O)[O-])cc2)cc1 | 53 °C |
| CC(C)(C)c1cc(CCc2cc(F)cc(F)c2NC(=O)NC(C)(C)c2ccc(Cl)c(Cl)c2)cc(C(C)(C)C)c1O | 224 to 226 °C |
| CC1(CN2CCC(N3CCNC3=O)CC2)OCc2ccccc2-n2cccc21 (stereo not drawn) | 197 to 199 °C |
| CC(=O)N1CC(CCN(C)C)Cc2ccc(OCc3ccc(-c4ccccc4)cc3)cc21 (stereo not drawn) | 62 to 63.5 °C |
| Cc1oc(-c2ccccc2)nc1COc1ccc(CCCO)cn1 | 89 to 90 °C |
| Cc1ccc(Nc2nc(-c3ccc(OC(F)(F)F)cc3)cs2)nc1 | 205 to 207 °C |
| Cc1cn(-c2cc(Br)c(N)c(C(F)(F)F)c2)c(C)n1 | 149 °C |
| CC(C)C1COCc2nc3c(N)nc4ccccc4c3n21 (stereo not drawn) | 249 to 250 °C |
| COC(=O)C(=O)N1C(=O)[C@@H](NC(=O)OC(C)(C)C)[C@@H]1OC(C)=O | 144 to 146 °C |
| NC(CC(=O)O)c1ccc(OC(F)(F)F)cc1 (stereo not drawn) | 258 to 260 °C |
| COc1cc(C(C)(C)O)c(OCc2ccccc2)cc1N1CCN(Cc2ccccc2)CC1 | 94 to 96 °C |
| O=C(OC(=O)c1cc2cc(O)ccc2s1)c1ccccc1 | 235 to 236 °C |
| O=C(O)c1ccc(C=Cc2cc3ccccc3s2)s1 | 236 to 237 °C |
| NC(=O)[C@@H]1CCCN1C(=O)CNC(=O)OCc1ccccc1 | 142 to 143 °C |
| CC(C)(C)OCC1CN(c2ccc3cc(O)ccc3c2)C(=O)O1 (stereo not drawn) | 177 to 178 °C |
| OCCCC(O)c1ccccc1 (stereo not drawn) | 63 to 68 °C |
| CN(C)C(=O)Nc1ccc(-c2c[nH]c(=O)cn2)cc1 | 256 to 260 °C |
| CNc1c(NCCSCc2ccc(CN(C)C)o2)c(=O)c1=O | 176 to 178 °C |
| COc1ccc(C=Nc2ccc(S(=O)(=O)NC(C)(C)C)cc2)cc1F | 129 to 131 °C |
| O=c1c2cnc(-c3ccccc3)nc2sn1Cc1ccccn1 | 154 to 156 °C |
| C=Cc1cc(C(C)NC(=O)OC(C)(C)C)cc(F)c1N (stereo not drawn) | 59 to 61 °C |
| Cn1cc(C2CCN(CCCCNC(=O)c3sc(-c4ccc(C(F)(F)F)cc4)nc3CO)CC2)c2ccccc21 | 160 °C |
| Nc1ncnc2c1ncn2C1OC(C(O)C(=O)NC2CCCC2)C(O)C1O (stereo not drawn) | 155 to 157 °C |
| CON(CCCc1ccc(Cl)c(Cl)c1)C(=O)C1=C(O)C(=O)N(C)C1 | 106 to 108 °C |
| CC(=O)C(Cl)=NNc1ccc(Oc2ccccc2)cc1 | 108 to 111 °C |

| SMILES | melting point |
| --- | --- |
| CC1(C)CCCC(NC(=O)OC(C)(C)C)C(=O)N1 (stereo not drawn) | 118 to 120 °C |
| COc1cccc(Sc2ccnc(Nc3cccc(CCO)c3)n2)c1 | 122 to 124 °C |
| Cc1ccc2cccc(OCc3c(Cl)ccc(C=O)c3Cl)c2n1 | 184 to 186 °C |
| C=CCN1CCN(C2=NC3(C=CC(=O)C=C3)C(Sc3ccccc3)=C2)CC1 | 175 °C |
| N#CCCc1cccc(-c2nc(=O)c3ccccc3s2)n1 | 157 °C |
| NC(=O)c1sc2ccc(C(F)(F)F)cc2c1O | 196 to 197 °C |
| NC(=S)Nc1ccccc1-c1cccc(F)c1 | 157 to 159 °C |
| Cc1csc(-c2nc(COc3ccc(CCCCn4ccnc4)cc3)co2)c1 | 77 to 78 °C |
| CCCn1cc2c(C3C(=O)Nc4ccc(Br)cc43)nc(NCCCN)nc2n1 (stereo not drawn) | > 300 °C |
| CN(C)C(=O)c1cc2c(OC[C@@H](O)CN3CCC(c4ccc5ccccc5c4)CC3)cccc2n1C | 146 to 148 °C |
| O=C(CN1CCCC1)NCc1ccc2c(c1)-c1[nH]nc(-c3ccsc3)c1C2 | 201 to 204 °C |
| COc1ccc(C(=O)Nc2ccccc2)cc1NCc1cccc(Cl)c1 | 203 to 205 °C |
| COc1ccc(N2CCN(c3cc(C)c4c(c3C)CC(C)(C)O4)CC2)cc1 | 174 to 175 °C |
| CC(=O)Nc1cccc(C(c2cccc(NC(C)=O)c2)(C(F)(F)F)C(F)(F)F)c1 | 309 to 311 °C |
| CC(=O)N[C@@H](CC(=O)c1ccc2oc3ccccc3c2c1)C(=O)O | 166 to 170 °C |
| N#Cc1cc(C(=O)NNC(=O)c2occ(-c3ccc(Cl)cc3)c2-c2ccc(Cl)cc2)ccc1O | 190 to 191 °C |
| CCC(=C(c1ccccc1)c1ccc(C=CCO)cc1)c1ccccc1 | 80 to 83 °C |
| O=C(O)C1CCCc2[nH]c3ccccc3c21 (stereo not drawn) | 163 to 165 °C |
| COc1cc(COc2nn(-c3ccccc3)cc2C=O)ccc1OCc1nc(-c2cccc(OS(C)(=O)=O)c2)oc1C | 146 to 148 °C |
| CC(C)c1ncc2n1-c1ccc(Cl)cc1C(c1ccccc1F)=NC2 | 168 to 169 °C |
| COC(=O)CCCc1cc2nc(Cl)ccc2n1S(=O)(=O)c1ccc(-c2ccccc2)cc1 | 122 to 124 °C |
| CCCc1nc(NS(=O)(=O)c2ccc(C(C)(C)C)cc2)c(-c2ccc(C)cc2)c(OCCOc2ncc(-c3cccs3)cn2)n1 | 165 to 166 °C |
| COc1cccc2c1C(=O)c1ccccc1C21CCN(C)CC1 | 170 to 172 °C |
| CCCN1CC(c2cccc(Cl)c2)=C(c2ccc(S(C)(=O)=O)cc2)C1=O | 148 to 149 °C |
| CON(C)C(=O)Nc1ccc(OCCc2ccc(C)cn2)cc1 | 110 to 112 °C |
| Cc1nn(CCBr)c(=O)c2ccccc12 | 102 to 103 °C |

| SMILES | melting point |
| --- | --- |
| O=C(OCc1ccccc1)N1CCc2c(sc3nc(CN4C(=O)CCC4=O)c(Cl)c(-c4ccc(C(F)(F)F)cc4)c23)C1 | 201 to 202 °C |
| CC(C)(O)c1ccc(Cl)nc1 | 67 to 71 °C |
| Nc1ncc(S(=O)c2ccc(C(F)(F)F)cn2)s1 (stereo not drawn) | 144 to 145 °C |
| Cc1c(C=O)c2cnnc(NCc3ccccc3)c2n1Cc1ccccc1 | 171 to 172 °C |
| Cc1c(C)c2c(c(C)c1N)C(=O)C(C)(C)O2 | 92 to 93 °C |
| N#Cc1ccc(N2CCC(CCO)CC2)c2ccccc12 | 128 to 129 °C |
| CNC(=O)c1cnn(-c2ccccc2)c1C#N | 203 to 205 °C |
| N#Cc1ccc2c(c1)-c1cc(C#N)ccc1OCCO2 | 195 to 196 °C |
| COC(=O)c1[nH]cnc1CCNC(=O)[C@H](Cc1ccccc1)NC(=O)[C@H](Cc1ccccc1)NC(=O)OC(C)(C)C | 155 to 159 °C |
| C/C(=C(\C#N)C(N)=S)N1CCCN(c2ccccc2)CC1 | 151 to 153 °C |
| CCN(CC)CCNC(=O)c1cc(N)cc(C)c1OC | 56 to 57 °C |
| O=C(O)C=CC(=O)Nc1n[nH]c2ccc(Br)cc12 | 172 °C |
| CS(=O)(=O)OCCOc1ccccc1OCC(F)(F)F | 36 to 38 °C |
| O=C1c2ccccc2C(O)N1c1ccc2ccc(F)nc2n1 (stereo not drawn) | 246 °C |
| O=c1[nH]c2ccccc2nc1-c1ccc(Cl)cc1Cl | 300 °C |
| Cc1cc2c(s1)S(=O)(=O)NC2=O | 231 °C |
| CSc1nnc(C(N)(c2ccc(Cl)cc2)c2ccc3nc(C)cc(-c4cccc(Cl)c4)c3c2)n1C (stereo not drawn) | 128 °C |
| CCOC(=O)CC(=O)c1ccc(C)nn1 | 79 °C |
| CSC(SC)c1cnn(-c2c(Cl)cc(C(F)(F)F)cc2Cl)n1 | 67 to 68 °C |
| CON=C(c1ccccc1COc1cc(C)ccc1C)C1OCCO1 | 136 to 137 °C |
| CCN(C(=O)OC(C)(C)C)C1CC=C(c2c[nH]c3ccc([N+](=O)[O-])cc23)CC1 (stereo not drawn) | 217 to 219 °C |
| O=C(Cl)c1cnc(O)c(Cl)c1 | > 250 °C |
| CC[C@H](C)C(=O)c1ccc(-c2ccc(OC)cc2)cc1 | 119 to 120 °C |
| COC(=O)Cc1cccc(CCC(CO)n2cnc(C(N)=O)c2)c1 (stereo not drawn) | 138 to 141 °C |
| COc1ccc(-c2nccc(C)c2OC2SCC(O)C(O)C2O)cc1 (stereo not drawn) | 101 °C |
